Experimental data taken from article PMC12520537, “A Multi‐Property Optimizing Generative Adversarial Network for de novo Antimicrobial Peptide Design” (Advanced Science, 2025).
Like-named read-outs stand apart in the source and are kept apart here. Ends that are not written are not given here.

Experiments:
[1] = test system: S. aureus BNCC186335; type: cell-based; conditions: BNCC186335, 18 h
Protocol: (§1) The antimicrobial activity of the synthesized AMPs was evaluated against several strains, including E. coli BL21(DE3), S. aureus BNCC186335, B. subtilis BNCC109047, and drug‐resistant strains such as E coli XJ13000957, E. coli XJ13022488, E. coli XJ19025100, E. coli XJ22006301, and MRSA ATCC43300. All strains are stored at ‐80°C and, before testing, were transferred into fresh Mueller‐Hinton Medium and incubated for 24 h at 37°C. Fresh cultures were used for the antimicrobial assays. The MIC values were determined using the broth microdilution method according to the Clinical and Laboratory Standards Institute (CLSI) protocol. Initial bacterial inoculums (5× 10^5 colony forming units (CFU)/mL) in Mueller‐Hinton Broth were exposed to varying concentrations of the compounds (0.5‐512 µg/mL) and incubated for 18 h at 37°C. The experiments are conducted on 96‐well microtiter plates with a final volume of 100 µL. The MIC was defined as the lowest concentration of the compound that inhibits visible bacterial growth. Additionally, the MBC was evaluated. After determining the MIC, samples from the MIC well and two higher concentrations are plated on agar plates. The MBC was recorded as the lowest concentration at which no visible bacterial colonies were observed. All experiments were performed in triplicate, with positive controls (ensuring proper bacterial growth) and negative controls (ensuring sterility) included.

[2] = test system: B. subtilis BNCC109047; type: cell-based; conditions: BNCC109047, 18 h
Protocol: as §1

[3] = test system: E. coli BL21(DE3); type: cell-based; conditions: BL21, 18 h
Protocol: as §1

[4] = test system: MC3T3-E1 cells; type: cell-based, mouse
Text: (§2) The assessment of cytotoxicity primarily relies on alterations in cell membrane permeability. To evaluate the cytotoxicity of AMPs, we employed the Cell Counting Kit‐8 (CCK‐8) assay, which is widely recognized as one of the most frequently used methods for assessing cytotoxicity. The CCK‐8 assay utilizes WST‐8 [2‐(2‐Methoxy‐4‐nitrophenyl)‐3‐(4‐nitrophenyl)‐5‐(2,4‐disulfophenyl)‐2H‐tetrazolium Sodium Salt] for rapid detection based on the principle that intracellular dehydrogenase‐mediated biological reduction of WST‐8 generates an orange formazan dye. This dye can dissolve in the medium, and its quantity is directly proportional to the number of viable cells. For the cytotoxicity test, 2 000 MC3T3‐E1 cells or CH3 cells were seeded into each well of 96‐well plates and cultured in DMEM medium containing 10% FBS and 1% penicillin‐streptomycin at 37 °C and 5% CO2overnight. Then the culture medium was removed, and the AMPs at the various concentrations in the media were added to each well. The cells were further incubated for 48 h, followed by the addition of […] of CCK‐8 and subsequent incubation for 1 h. The absorbance of the solution was measured at 450 nm by a microplate reader. The cell viability was calculated as follows (A represents absorbance): (11) %Cell viability=Asample−Ablank/Anegative−Ablank×100
The data were plotted as AMP concentration versus the percentage of living cells using GraphPad Prism 8.0.

[5] = test system: E. coli XJ19025100; type: cell-based; conditions: XJ19025100, 18 h
Protocol: as §1

[6] = test system: bone marrow mesenchymal stem cells CH3; type: cell-based
Text: as §2, with “viability=Asample−Ablank/Anegative−Ablank×100 […]” for “viability=Asample−Ablank/Anegative−Ablank×100”

[7] = test system: human red blood cells; type: cell-based; conditions: 3 h
Protocol: Anticoagulant whole blood was diluted with PBS at a ratio of 1:1 and subsequently centrifuged at 1500×g for 10 minutes. The supernatant and white blood cell layer were discarded, while the red blood cells were washed three times with PBS until the supernatant became colorless and transparent. A 2% red blood cell suspension was then prepared using PBS. For the positive control, 0.2 mL of 1% Triton X‐100 was mixed with 0.8 mL of the red blood cell suspension. The negative control consisted of 0.2 mL of PBS combined with 0.8 mL of the red blood cell suspension. In the experimental group, 0.2 mL of MPOP‐03 (prepared at gradient concentrations) was added to 0.8 mL of the red blood cell suspension. Three replicates were prepared for each group. All samples were incubated at 37°C in a constant temperature water bath for 3 hours. Following incubation, the samples were centrifuged at 1500×g for 5 minutes, and the supernatants were carefully aspirated and transferred to new centrifuge tubes. The optical density values of the samples were measured at a wavelength of 524 nm using a microplate reader. The hemolysis ratio was calculated as follows (A represents absorbance): (12) %Hemolysis ratio=Asample−Anegative/Apositive−Anegative×100

Sequence | MIC S. aureus [1] | MIC B. subtilis [2] | MIC E. coli [3] | CC50 (MC3T3-E1) [4] | MIC against E. coli XJ19025100 [5] | CC50 for CH3 [6] | CC50 for CH3 ([6]; 48 h) | CC50 for MC3T3-E1 ([4]; 48 h) | HC50 (concentration required to induce 50% hemolysis of red blood cells) [7]
DPFGIMSKLQQFIRKFYQSLKHLKT [MPOP-01] | 4 µg/mL | 8 µg/mL | 128 µg/mL | 24 µg/mL |  |  |  |  | 
GGGGMLKYFKTAIHTIKKIGQKIVN [MPOP-04] | 4 µg/mL | 4 µg/mL | 16 µg/mL | 22 µg/mL |  |  |  |  | 
GIGKFLHSFTKFFSKIMNAIR [MPOP-07] | 4 µg/mL | 4 µg/mL |  | 35 µg/mL |  |  |  |  | 
GLFDVIKKIAEMVSNGYHTVKKKF [MPOP-08] | 4 µg/mL | 4 µg/mL | 32 µg/mL | 24 µg/mL |  |  |  |  | 
IGSFKHVFKRITSMAKAIR [MPOP-10] | 32 µg/mL | 32 µg/mL | 256 µg/mL |  |  |  |  |  | 
IKGIIKTIKKMASHFLHSAS [MPOP-09] | 8 µg/mL | 8 µg/mL | 16 µg/mL | 118 µg/mL |  |  |  |  | 
KLFRVVKKMFHSVFSSIHKYFR [MPOP-06] | 8 µg/mL | 8 µg/mL | 32 µg/mL | 20 µg/mL |  |  |  |  | 
LHQIKSVIKTAMNVLSGLFSAIKKK [MPOP-02] | 4 µg/mL | 4 µg/mL | 32 µg/mL | 15 µg/mL |  |  |  |  | 
MSKFKHFFNAVKSIFRGLTK [MPOP-03] |  | 2 µg/mL |  | 85 µg/mL | ≤ 8 µg/mL | 32.47 µg/mL | 34.27 µg/mL | 84.96 µg/mL | 256 µg/mL
VMKRIGTILSGLHSLLSKIF [MPOP-05] | 4 µg/mL | 4 µg/mL | 32 µg/mL | 28 µg/mL |  |  |  |  | 
